Legend:
[1] = xn = mol fraction of the nth substance listed; details: 101 kPa, Liquid, Small sample (50 mg) DSC
[2] = molar heat capacity at constant pressure; details: 298.15 K; 101.33 kPa; Liquid; Small sample (50 mg) DSC

NCc1ccccc1 [benzylamine] + CCCO
excess molar heat capacity [J/K/mol], [1]
Details | 293.15 K | 298.15 K | 308.15 K
x2 = 0.0665 | 1.89 | 2.55 | 2.84
x2 = 0.1004 | 2.96 | 3.37 | 3.45
x2 = 0.1986 | 6.26 | 6.74 | 6.5
x2 = 0.2994 | 9.38 | 9.67 | 9.53
x2 = 0.4007 | 11.35 | 11.45 | 11.18
x2 = 0.4477 | 11.83 | 11.95 | 11.58
x2 = 0.5497 | 13.34 | 13.25 | 12.85
x2 = 0.6032 | 13.04 | 12.99 | 12.57
x2 = 0.6515 | 12.75 | 12.91 | 12.84
x2 = 0.6998 | 12.05 | 12.14 | 11.7
x2 = 0.8014 | 9.42 | 9.48 | 9.06
x2 = 0.849 | 7.29 | 7.32 | 7.22
x2 = 0.9003 | 4.9 | 5.05 | 4.75

NCc1ccccc1 [benzylamine] + CO
excess molar heat capacity [J/K/mol], [1]
Details | 293.15 K | 298.15 K | 308.15 K
x2 = 0.0537 | 1.16 | 1.26 | 1.59
x2 = 0.1106 | 2.61 | 2.84 | 3.36
x2 = 0.2041 | 5.02 | 5.43 | 6.08
x2 = 0.2963 | 7.9 | 8.16 | 8.87
x2 = 0.3518 | 9.32 | 9.77 | 10.2
x2 = 0.397 | 10.86 | 11.3 | 11.89
x2 = 0.4966 | 12.24 | 12.88 | 13.26
x2 = 0.5512 | 12.66 | 13.17 | 13.67
x2 = 0.5987 | 12.63 | 12.99 | 13.38
x2 = 0.6991 | 10.63 | 11.13 | 11.55
x2 = 0.7484 | 9.18 | 9.49 | 10
x2 = 0.7988 | 7.43 | 7.67 | 8.28
x2 = 0.849 | 4.92 | 5.29 | 5.72
x2 = 0.9009 | 3.22 | 3.49 | 3.8

CCCCCCC [heptane]
Details | molar heat capacity at constant pressure [J/K/mol]
[2] | 223.91

CO [methanol]
Details | molar heat capacity at constant pressure [J/K/mol]
[2] | 80.81

CCCCCO [pentan-1-ol]
Details | molar heat capacity at constant pressure [J/K/mol]
[2] | 206.67

CCCO [propan-1-ol]
Details | molar heat capacity at constant pressure [J/K/mol]
[2] | 143.41

From the NIST ThermoML archive (doi:10.1016/j.tca.2014.03.027)
